# According to patent US10646570B2, “Induced photodynamic therapy using nanoparticle scintillators as transducers” (UNIVERSITY OF GEORGIA RESEARCH FOUNDATION, INC., priority 2014, dated 2020):
# Test: 1O2 production in solutions, SOSG indicator, X-ray irradiation
# Details: either with or without X-ray
# Procedure: 1 mL of 0.05 mg M-SAO@SiO2/mL was added in a quartz cuvette (equilibrated with air at room temperature) containing 1 μM of SOSG. For controls, SAO, MC540, and water were analyzed. The solutions were irradiated by X-ray (at an irradiance of 1 Sv/h for 20 min, with a 1-min intermission after each 5-min irradiation cycle. The fluorescence signals (ex/em: 504/525 nm) were measured on a Hitachi F-7000 fluorescence spectrophotometer.
# There is a significant overlap between the XEOL of SAO and the excitation wavelength of MC540 (FIG. 9A). Therefore, the ability of M-SAO@SiO2 nanoparticles irradiated by X-ray to relay energy in the form of visible photons to MC540 and as a result, producing ^1O2 was investigated. A common ^1O2 indicator, singlet oxygen sensor green (SOSG, Invitrogen) was used to investigate this effect. SOSG is a fluorescent compound which undergoes a structural change in the presence of ^1O2. The process is accompanied by an increase of fluorescence (ex/em: 504/525 nm). Therefore, by measuring the fluorescence change, the ^1O2 generation in solutions or cells can be monitored. Using SOSG, ^1O2 generation with a M-SAO@SiO2 nanoparticle solution (50 μg/mL) under X-ray irradiation was studied (1 Sv/h, FIG. 9B). Compared to the background, the intensity of 525 nm fluorescence was increased by 8, 25, 35, and 45% after 5, 10, 15, and 20 min X-ray irradiation, respectively (FIG. 9B).
compound,measurement,value
"CCCCN1C(=O)C(=C/C=C/C=C2\Oc3ccccc3N2CCCS(=O)(=O)[O-])C(=O)N(CCCC)C1=S.[Na+] [MC540, merocyanine 540]","increase in fluorescence (1O2, SOSG)",minimal increase in fluorescence
